The values below come from ChEMBL document CHEMBL1136356, “Rational design of antimicrobial agents: antifungal activity of alk(en)yl dihydroxybenzoates and dihydroxyphenyl alkanoates” (Bioorg Med Chem Lett, 2003).

≈ marks a conversion by molar mass, not a printed value.

One may read the logP as the decadic logarithm of the partition coefficient of the neutral form, usually between octanol and water. A higher logP goes with higher lipophilicity.

Data set [1] can be described thus: physchem. To be noted: octanol/water.
Description: Partition coefficient (logP)
Data set [2] relates to Saccharomyces cerevisiae. Nature of the data set: microbe, parasite or virus in culture. As to conditions: ATCC 7754.
Description: (§1) Antifungal activity against Saccharomyces cerevisiae ATCC 7754
For data set [3], the system named is Saccharomyces cerevisiae. Nature of the data set: microbe, parasite or virus in culture. As to conditions: ATCC 7754. This is another data set of the same source.
Description: as §1

`CCCCCCCC(C)OC(=O)c1ccc(O)c(O)c1` (configuration not stated) came in with a logP in data set [1] of 4.3. This compound also had an MFC in data set [2] of 25 µg/mL (≈ 89.2 µM). In addition, the MIC in data set [3] is 25 µg/mL (≈ 89.2 µM).
In data set [1], `CCCCOC(=O)c1ccc(O)c(O)c1` showed a logP of 2.32. Besides, the MFC in data set [2] was 400 µg/mL (≈ 1900 µM). Also, in data set [3], the MIC came out at 200 µg/mL (≈ 951 µM).
Turning to `CCCCCC/C=C/COC(=O)c1ccc(O)c(O)c1`, in data set [1], the logP stood at 4.22. Besides, the MFC in data set [2] came out at 6.25 µg/mL (≈ 22.5 µM). In data set [3], this compound had an MIC of 6.25 µg/mL (≈ 22.5 µM).
With `CCCCCCCCCCCOC(=O)c1cc(O)cc(O)c1O`, in data set [1], the logP turned out to be 4.83. Besides, the MFC in data set [2] turned out to be 25 µg/mL (≈ 77.1 µM). In data set [3], this compound gave an MIC of 25 µg/mL (≈ 77.1 µM).
With `O=C(OCC1CCCCC1)c1ccc(O)c(O)c1`, the logP in data set [1] came out at 3.05. The compound further yielded an MFC in data set [2] of 50 µg/mL (≈ 200 µM). Also, the MIC in data set [3] worked out at 50 µg/mL (≈ 200 µM).
In the case of `CCCCCCC(CC)OC(=O)c1ccc(O)c(O)c1` (configuration not stated), in data set [1], the logP came to 4.37. Moreover, the MFC in data set [2] turned out to be 12.5 µg/mL (≈ 44.6 µM). The same compound returned an MIC in data set [3] of 12.5 µg/mL (≈ 44.6 µM).
In data set [1], `CCCCCCCCCCCOC(=O)c1ccc(O)c(O)c1` returned a logP of 5.24. The same compound came in with an MFC in data set [2] of over 400 µg/mL. In data set [3], this compound registered an MIC of over 400 µg/mL.
`CCCCCCCOC(=O)c1cc(O)cc(O)c1O`: in data set [1], the logP is 3.16. For the same compound, in data set [2], the MFC stood at 200 µg/mL (≈ 745 µM). Besides, the MIC in data set [3] was determined as 200 µg/mL (≈ 745 µM).
In the case of `CCCCCCCCCCOC(=O)c1cc(O)cc(O)c1O`, in data set [1], the logP came to 4.42. Also, in data set [2], the MFC was determined as 25 µg/mL (≈ 80.5 µM). The MIC in data set [3] stood at 12.5 µg/mL (≈ 40.3 µM).
The matching figures for `O=C(OC1CCC2CCCCC2C1)c1ccc(O)c(O)c1` (configuration not stated): 3.62, 25 µg/mL (≈ 86.1 µM) and 25 µg/mL (≈ 86.1 µM).
For `CCCOC(=O)c1ccc(O)c(O)c1`, the logP in data set [1] is 1.9. The compound also yielded an MFC in data set [2] of over 400 µg/mL. Further, the MIC in data set [3] was over 400 µg/mL.
In turn, `CCCCCCCCCCCCOC(=O)c1cc(O)cc(O)c1O` yielded a logP in data set [1] of 5.25. This compound also gave an MFC in data set [2] of over 400 µg/mL. This compound also gave an MIC in data set [3] of over 400 µg/mL.
`CCCCCCCCCCCCCOC(=O)c1cc(O)cc(O)c1O` yielded a logP in data set [1] of 5.67. The compound further yielded an MFC in data set [2] of over 400 µg/mL. The MIC in data set [3] was over 400 µg/mL.
Compound `CC1(C)C2CCC1(C)C(OC(=O)c1ccc(O)c(O)c1)C2` (configuration not stated) gave a logP in data set [1] of 3.78. In addition, in data set [2], the MFC came to 50 µg/mL (≈ 172 µM). Also, the MIC in data set [3] is 50 µg/mL (≈ 172 µM).
For `CCCCCOC(=O)c1ccc(O)c(O)c1`, the logP in data set [1] was found to be 2.73. Also, the MFC in data set [2] is 100 µg/mL (≈ 446 µM). In addition, the MIC in data set [3] turned out to be 100 µg/mL (≈ 446 µM).
In data set [1], `CCCCCCCCOC(=O)c1cc(O)cc(O)c1O` had a logP of 3.58. The compound also returned an MFC in data set [2] of 100 µg/mL (≈ 354 µM). Further, the MIC in data set [3] was found to be 50 µg/mL (≈ 177 µM).
The matching figures for `CC1CCC(C(C)C)C(OC(=O)c2ccc(O)c(O)c2)C1` (configuration not stated): 4.1, 12.5 µg/mL (≈ 42.8 µM) and 12.5 µg/mL (≈ 42.8 µM).
On the same counts, the results for `CCCCCC/C=C\COC(=O)c1ccc(O)c(O)c1` are 4.22, 6.25 µg/mL (≈ 22.5 µM) and 6.25 µg/mL (≈ 22.5 µM).
`CC(C)=CCC/C(C)=C/COC(=O)c1ccc(O)c(O)c1` registered a lipophilicity (logP) in data set [1] of 3.84. The MFC in data set [2] was 12.5 µg/mL (≈ 43.1 µM). Also, in data set [3], the MIC is 12.5 µg/mL (≈ 43.1 µM).
In data set [1], `CC(C)=CCC/C(C)=C\COC(=O)c1ccc(O)c(O)c1` yielded a logP of 3.84. Besides, in data set [2], the MFC turned out to be 25 µg/mL (≈ 86.1 µM). Also, the MIC in data set [3] came to 12.5 µg/mL (≈ 43.1 µM).
On the same counts, the results for `CCCCCCCCCOC(=O)c1cc(O)cc(O)c1O` are 4, 25 µg/mL (≈ 84.4 µM) and 25 µg/mL (≈ 84.4 µM).
On the same counts, the results for `CCCCCCCOC(=O)c1ccc(O)c(O)c1` [HEPTYL 3,4-DIHYDROXYBENZOATE] are 3.57, 12.5 µg/mL (≈ 49.5 µM) and 12.5 µg/mL (≈ 49.5 µM).
For `CCCCCCOC(=O)c1ccc(O)c(O)c1` [HEXYL 3,4-DIHYDROXYBENZOATE], in data set [1], the lipophilicity (logP) was determined as 3.15. This compound also showed an MFC in data set [2] of 25 µg/mL (≈ 105 µM). The MIC in data set [3] amounted to 25 µg/mL (≈ 105 µM).
`Clc1ccc(COC(Cn2ccnc2)c2ccc(Cl)cc2Cl)c(Cl)c1` (configuration not stated) [MICONAZOLE]: the MFC in data set [2] came out at 50 µg/mL (≈ 120 µM). The MIC in data set [3] was 6.25 µg/mL (≈ 15 µM).
In data set [1], `CCCCCCCCCOC(=O)c1ccc(O)c(O)c1` [NONYL 3,4-DIHYDROXYBENZOATE] returned a logP of 4.4. In data set [2], this compound gave an MFC of 1.25 µg/mL (≈ 4.46 µM). This compound also registered an MIC in data set [3] of 6.25 µg/mL (≈ 22.3 µM).
The matching figures for `CCCCCCCCOC(=O)c1ccc(O)c(O)c1` [OCTYL 3,4-DIHYDROXYBENZOATE]: 3.99, 12.5 µg/mL (≈ 46.9 µM) and 6.25 µg/mL (≈ 23.5 µM).
